According to paper PMC11207571, “Applicability of MDR1 Overexpressing Abcb1KO-MDCKII Cell Lines for Investigating In Vitro Species Differences and Brain Penetration Prediction” (Pharmaceutics, 2024):

What was measured:
[1] = target: T1, rat Mdr1a (Rattus norvegicus, UniProt Q6PSM0); test: Bidirectional transport assay, efflux ratio in Abcb1KO-MDCKII rMDR1 cells; details: for efflux ratio at 120 min, 1 µM: rat, pH 7.4
How it was run: (§1)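 Samples, combined into pools of three to four analytes, are injected onto HPLC with formic acid (0.1%)-modified aqueous and acetonitrile eluents. They are then quantified by tandem MS in SRM mode.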

[2] = target: T2, cynomolgus monkey Mdr1 (Macaca fascicularis, UniProt Q8HZQ6); test: Bidirectional transport assay, efflux ratio in Abcb1KO-MDCKII cyMDR1 cells; details: for efflux ratio at 120 min, 1 µM: cynomolgus monkey, pH 7.4
How it was run: as §1

[3] = target: T3, human BCRP (Homo sapiens, UniProt Q9UNQ0); test: Bidirectional transport assay, efflux ratio in MDCKII-BCRP cells; details: for efflux ratio at 120 min, 1 µM: human, pH 7.4
T3 sequence (Q9UNQ0 1-655): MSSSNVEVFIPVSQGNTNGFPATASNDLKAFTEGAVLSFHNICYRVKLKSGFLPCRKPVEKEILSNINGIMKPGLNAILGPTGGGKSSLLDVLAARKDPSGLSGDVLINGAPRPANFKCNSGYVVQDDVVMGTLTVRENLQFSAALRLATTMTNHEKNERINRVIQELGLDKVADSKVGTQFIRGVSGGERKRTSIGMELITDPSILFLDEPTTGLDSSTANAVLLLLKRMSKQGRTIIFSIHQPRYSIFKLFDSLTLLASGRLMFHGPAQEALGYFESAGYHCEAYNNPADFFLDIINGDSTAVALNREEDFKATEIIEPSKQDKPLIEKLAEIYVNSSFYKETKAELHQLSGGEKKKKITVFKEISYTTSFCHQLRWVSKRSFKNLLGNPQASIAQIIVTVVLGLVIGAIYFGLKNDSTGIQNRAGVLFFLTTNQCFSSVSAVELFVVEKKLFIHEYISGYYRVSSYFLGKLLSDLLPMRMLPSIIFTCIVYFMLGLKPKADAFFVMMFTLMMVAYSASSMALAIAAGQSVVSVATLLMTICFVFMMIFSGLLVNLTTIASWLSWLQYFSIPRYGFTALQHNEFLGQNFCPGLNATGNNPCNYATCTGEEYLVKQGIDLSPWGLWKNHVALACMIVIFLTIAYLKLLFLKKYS
How it was run: as §1

[4] = tested on: Abcb1KO-MDCKII-Mock cells; test: Bidirectional transport assay, efflux ratio in Abcb1KO-MDCKII-Mock control cells; details: 1 µM, 120 min; mean ± SD
Experimental: (§2) Eluent A consisted of 0.1% formic acid in water, eluent B consisted of 0.1% formic acid in acetonitrile. Then, 10 µL samples were injected into the HPLC-MS/MS system. Mass spectrometric detection was performed in SRM mode, and ion transitions for each analyte were optimized during method development. Samples were analyzed in pools, with each pool containing three to four analytes.

[5] = target: T4, human MDR1 (Homo sapiens, UniProt P08183); test: Bidirectional transport assay, efflux ratio in Abcb1KO-MDCKII hMDR1 cells; details: for efflux ratio at 120 min, 1 µM: human, MDCK-MDR1, pH 7.4
How it was run: as §1

[6] = target: T5, mouse Mdr1a (Mus musculus, UniProt P21447); test: Bidirectional transport assay, efflux ratio in Abcb1KO-MDCKII mMDR1 cells; details: for efflux ratio at 120 min, 1 µM: mouse, pH 7.4
How it was run: as §1

[7] = target: T2, cynomolgus monkey Mdr1; test: cell-based
[8] = Bidirectional transport assay, efflux ratio in Abcb1KO-MDCKII-Mock control cells; details: dog, MDCK, pH 7.4
Experimental: as §2

[9] = tested on: hMDR1 and hBCRP; test: Brain permeability classification from total ER of hMDR1 and hBCRP against in vivo rodent Kp,uu,brain
Experimental: MDR1 and/or BCRP substrate properties were investigated by binary classification analysis on CNS+ and CNS− compounds. […] True negative (TN), where there was no efflux and the CNS+ compound crossed the BBB. […] The sensitivity and specificity of the estimation of brain penetration along with MDR1 and BCRP activity were calculated from predictive performance metrics.
First, NET ER was calculated and used for human predictions, (2) NET ER=ER(−inh)[…]ER(+inh) where ER(−inh) is ER in the absence of inhibitor, and ER(+inh) is ER in the presence of inhibitor, for hMDR1 (ERMDR1) or hBCRP (ERBCRP).
To identify the correlation between the in vivo rodent Kp,uu,brain and ERs, 58 compounds with known Kp,uu,brain were selected. An ER of 2 was used as a cut-off to classify MDR1 substrates and a Kp,uu,brain of 0.3 was used as a threshold for CNS penetrant compounds. The resulting graphs are thus divided into four quadrants. Brain penetration (Kp,uu,brain) was used as the logical value true condition, with compounds having Kp,uu,brain ≤ 0.3 considered positive. Q2 and Q3 comprise molecules with impaired brain penetration. […] Molecules in Q4 (true negatives, TN) can freely access the brain (Figure 2). Predictive performance metrics were calculated to show the efficacy of the established cell lines in BBB permeability classification (Table 1). Sensitivity refers to the ability of the model to correctly classify CNS-restricted molecules based on MDR1 substrate nature.
Subsequently, for a more reliable prediction of brain penetration, data generated in the hBCRP cell line were included in the analysis. hBCRP assay conditions and evaluations were identical to that of MDR1 cell lines, which allowed proper comparisons (Figure 2E,F). Total ER was calculated by combining ERs determined in BCRP and hMDR1 cell lines based on Equation (3), with an ER cut-off of 3. […] Eventually, total ERs were also assessed with the Relative Expression Factor (REF) (Equation (4); Figure 2E,F). REF is an in vitro and in vivo correlation scaler, calculated from transporter protein abundances in brain microvessels versus overexpressing cell lines.

[10] = target: T1, rat Mdr1a; test: Inhibition of 3H-digoxin or 3H-quinidine bidirectional transport in rMDR1 cells; type: cell-based; parameters: rat Mdr1a (NM_133401.1); expressed in transfected cells; host or cells: Abcb1KO-MDCKII (canine kidney, endogenous Abcb1 knocked out), transduced, single-cell clone; details: IC50 from ER
[11] = target: T5, mouse Mdr1a; test: Inhibition of 3H-digoxin or 3H-quinidine bidirectional transport in mMDR1 cells; type: cell-based; parameters: mouse Mdr1a (NM_011076.3); expressed in transfected cells; host or cells: Abcb1KO-MDCKII (canine kidney, endogenous Abcb1 knocked out), transduced, single-cell clone; details: IC50 from ER
[12] = target: T2, cynomolgus monkey Mdr1; test: Inhibition of 3H-digoxin or 3H-quinidine bidirectional transport in cyMDR1 cells; details: Inhibition of quinidine transport IC50±SD, cyMDR1, probe 3H-quinidine 0.1 µM, 60 min; IC50 from ER
[13] = target: T4, human MDR1; test: Inhibition of 3H-digoxin or 3H-quinidine bidirectional transport in hMDR1 cells; details: IC50 from ER
[14] = total ER cut-off 3, in vivo rodent Kp,uu,brain cut-off 0.3

T1 sequence (Q6PSM0 1-1272): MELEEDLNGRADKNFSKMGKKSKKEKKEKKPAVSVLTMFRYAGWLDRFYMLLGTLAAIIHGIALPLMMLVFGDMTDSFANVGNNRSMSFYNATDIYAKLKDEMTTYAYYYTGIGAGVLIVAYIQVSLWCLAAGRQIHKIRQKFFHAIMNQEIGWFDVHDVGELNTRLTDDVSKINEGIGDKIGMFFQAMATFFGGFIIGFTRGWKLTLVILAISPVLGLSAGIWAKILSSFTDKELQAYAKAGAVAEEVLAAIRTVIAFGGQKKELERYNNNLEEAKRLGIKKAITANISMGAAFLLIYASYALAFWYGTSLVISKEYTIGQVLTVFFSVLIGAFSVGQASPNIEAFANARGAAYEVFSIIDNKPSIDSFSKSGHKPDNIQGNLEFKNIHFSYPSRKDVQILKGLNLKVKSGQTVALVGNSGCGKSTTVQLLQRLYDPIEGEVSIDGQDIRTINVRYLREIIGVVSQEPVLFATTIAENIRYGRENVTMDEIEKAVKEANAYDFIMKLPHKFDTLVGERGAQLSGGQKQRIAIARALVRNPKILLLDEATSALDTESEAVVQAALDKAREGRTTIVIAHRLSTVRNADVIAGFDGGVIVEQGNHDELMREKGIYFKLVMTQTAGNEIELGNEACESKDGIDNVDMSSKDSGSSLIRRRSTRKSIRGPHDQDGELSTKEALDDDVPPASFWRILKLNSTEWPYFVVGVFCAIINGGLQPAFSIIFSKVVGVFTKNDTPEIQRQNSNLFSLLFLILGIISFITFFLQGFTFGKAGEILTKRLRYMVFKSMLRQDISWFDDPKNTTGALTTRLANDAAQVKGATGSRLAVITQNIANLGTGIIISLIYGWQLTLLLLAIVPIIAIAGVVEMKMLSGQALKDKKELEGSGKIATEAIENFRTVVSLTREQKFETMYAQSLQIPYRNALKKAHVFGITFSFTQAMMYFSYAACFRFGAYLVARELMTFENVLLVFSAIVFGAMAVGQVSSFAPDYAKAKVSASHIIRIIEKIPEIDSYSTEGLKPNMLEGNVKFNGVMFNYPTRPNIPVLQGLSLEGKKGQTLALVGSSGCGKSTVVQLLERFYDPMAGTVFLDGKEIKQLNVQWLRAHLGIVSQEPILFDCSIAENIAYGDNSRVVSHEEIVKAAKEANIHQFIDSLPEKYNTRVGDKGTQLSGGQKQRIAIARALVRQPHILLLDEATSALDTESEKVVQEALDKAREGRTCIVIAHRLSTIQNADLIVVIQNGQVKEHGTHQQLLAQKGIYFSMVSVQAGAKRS
T5 sequence (P21447 whole entry): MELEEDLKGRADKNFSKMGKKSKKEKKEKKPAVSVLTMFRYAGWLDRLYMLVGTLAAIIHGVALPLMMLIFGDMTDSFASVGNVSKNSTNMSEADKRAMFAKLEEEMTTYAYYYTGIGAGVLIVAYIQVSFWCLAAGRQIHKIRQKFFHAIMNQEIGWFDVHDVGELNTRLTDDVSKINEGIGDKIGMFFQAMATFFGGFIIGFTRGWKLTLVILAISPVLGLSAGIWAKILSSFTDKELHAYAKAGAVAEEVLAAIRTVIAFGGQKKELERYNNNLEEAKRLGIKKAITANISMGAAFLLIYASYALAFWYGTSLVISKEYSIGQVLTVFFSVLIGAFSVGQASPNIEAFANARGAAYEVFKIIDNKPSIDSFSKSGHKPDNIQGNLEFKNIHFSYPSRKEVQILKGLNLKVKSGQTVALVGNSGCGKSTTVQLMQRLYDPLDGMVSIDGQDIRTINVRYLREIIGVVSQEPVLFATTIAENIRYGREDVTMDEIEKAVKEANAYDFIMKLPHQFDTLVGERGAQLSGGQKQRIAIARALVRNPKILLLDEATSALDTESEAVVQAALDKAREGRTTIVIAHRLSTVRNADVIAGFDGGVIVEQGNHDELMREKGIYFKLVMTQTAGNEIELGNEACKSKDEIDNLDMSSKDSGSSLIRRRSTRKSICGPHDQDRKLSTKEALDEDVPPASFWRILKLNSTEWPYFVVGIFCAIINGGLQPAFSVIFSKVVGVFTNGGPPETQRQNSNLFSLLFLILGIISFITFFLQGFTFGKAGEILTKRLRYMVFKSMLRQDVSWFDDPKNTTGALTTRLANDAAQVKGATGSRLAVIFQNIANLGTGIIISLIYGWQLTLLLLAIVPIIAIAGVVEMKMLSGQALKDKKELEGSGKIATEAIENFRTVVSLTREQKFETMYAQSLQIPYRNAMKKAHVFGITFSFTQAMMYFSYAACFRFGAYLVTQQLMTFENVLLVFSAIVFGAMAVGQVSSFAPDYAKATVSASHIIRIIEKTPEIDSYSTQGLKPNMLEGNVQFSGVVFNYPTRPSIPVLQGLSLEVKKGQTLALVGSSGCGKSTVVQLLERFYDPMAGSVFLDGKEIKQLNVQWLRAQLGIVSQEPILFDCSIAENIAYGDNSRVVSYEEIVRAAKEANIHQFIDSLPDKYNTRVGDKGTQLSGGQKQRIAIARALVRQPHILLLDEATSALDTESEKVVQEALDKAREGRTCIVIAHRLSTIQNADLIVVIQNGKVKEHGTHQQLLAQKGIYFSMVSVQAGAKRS
T4 sequence (P08183 whole entry): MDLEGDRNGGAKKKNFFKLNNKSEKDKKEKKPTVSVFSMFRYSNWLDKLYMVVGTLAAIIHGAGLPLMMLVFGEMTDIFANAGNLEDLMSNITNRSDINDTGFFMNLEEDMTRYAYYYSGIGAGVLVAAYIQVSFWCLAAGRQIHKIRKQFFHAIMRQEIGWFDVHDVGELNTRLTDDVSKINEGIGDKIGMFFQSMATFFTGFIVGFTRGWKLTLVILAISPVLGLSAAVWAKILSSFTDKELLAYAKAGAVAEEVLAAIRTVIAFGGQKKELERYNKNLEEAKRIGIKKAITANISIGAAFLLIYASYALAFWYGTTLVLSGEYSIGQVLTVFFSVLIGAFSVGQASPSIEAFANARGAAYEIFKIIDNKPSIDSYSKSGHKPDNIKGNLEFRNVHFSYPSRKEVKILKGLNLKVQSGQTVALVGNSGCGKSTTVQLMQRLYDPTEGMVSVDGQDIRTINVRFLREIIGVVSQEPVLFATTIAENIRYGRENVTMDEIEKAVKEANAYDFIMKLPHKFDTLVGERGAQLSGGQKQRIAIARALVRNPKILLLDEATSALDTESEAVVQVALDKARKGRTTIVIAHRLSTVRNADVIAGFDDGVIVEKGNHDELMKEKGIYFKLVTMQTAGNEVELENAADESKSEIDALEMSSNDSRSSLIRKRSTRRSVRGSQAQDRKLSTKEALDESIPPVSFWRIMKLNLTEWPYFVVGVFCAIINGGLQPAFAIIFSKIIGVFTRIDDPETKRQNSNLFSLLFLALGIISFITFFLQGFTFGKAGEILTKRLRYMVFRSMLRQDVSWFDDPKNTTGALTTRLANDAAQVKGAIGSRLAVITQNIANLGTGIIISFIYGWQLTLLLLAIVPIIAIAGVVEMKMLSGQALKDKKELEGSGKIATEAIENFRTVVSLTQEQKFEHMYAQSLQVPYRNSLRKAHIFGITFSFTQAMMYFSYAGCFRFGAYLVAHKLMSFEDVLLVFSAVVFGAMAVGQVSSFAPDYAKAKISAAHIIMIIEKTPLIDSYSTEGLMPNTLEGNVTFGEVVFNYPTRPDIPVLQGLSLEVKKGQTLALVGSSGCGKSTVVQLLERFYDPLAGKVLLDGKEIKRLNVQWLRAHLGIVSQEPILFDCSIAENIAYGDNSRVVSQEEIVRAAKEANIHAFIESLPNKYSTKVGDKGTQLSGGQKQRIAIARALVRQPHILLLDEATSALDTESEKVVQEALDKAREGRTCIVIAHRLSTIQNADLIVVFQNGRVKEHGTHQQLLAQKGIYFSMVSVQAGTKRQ
T2 sequence (Q8HZQ6 1-1283): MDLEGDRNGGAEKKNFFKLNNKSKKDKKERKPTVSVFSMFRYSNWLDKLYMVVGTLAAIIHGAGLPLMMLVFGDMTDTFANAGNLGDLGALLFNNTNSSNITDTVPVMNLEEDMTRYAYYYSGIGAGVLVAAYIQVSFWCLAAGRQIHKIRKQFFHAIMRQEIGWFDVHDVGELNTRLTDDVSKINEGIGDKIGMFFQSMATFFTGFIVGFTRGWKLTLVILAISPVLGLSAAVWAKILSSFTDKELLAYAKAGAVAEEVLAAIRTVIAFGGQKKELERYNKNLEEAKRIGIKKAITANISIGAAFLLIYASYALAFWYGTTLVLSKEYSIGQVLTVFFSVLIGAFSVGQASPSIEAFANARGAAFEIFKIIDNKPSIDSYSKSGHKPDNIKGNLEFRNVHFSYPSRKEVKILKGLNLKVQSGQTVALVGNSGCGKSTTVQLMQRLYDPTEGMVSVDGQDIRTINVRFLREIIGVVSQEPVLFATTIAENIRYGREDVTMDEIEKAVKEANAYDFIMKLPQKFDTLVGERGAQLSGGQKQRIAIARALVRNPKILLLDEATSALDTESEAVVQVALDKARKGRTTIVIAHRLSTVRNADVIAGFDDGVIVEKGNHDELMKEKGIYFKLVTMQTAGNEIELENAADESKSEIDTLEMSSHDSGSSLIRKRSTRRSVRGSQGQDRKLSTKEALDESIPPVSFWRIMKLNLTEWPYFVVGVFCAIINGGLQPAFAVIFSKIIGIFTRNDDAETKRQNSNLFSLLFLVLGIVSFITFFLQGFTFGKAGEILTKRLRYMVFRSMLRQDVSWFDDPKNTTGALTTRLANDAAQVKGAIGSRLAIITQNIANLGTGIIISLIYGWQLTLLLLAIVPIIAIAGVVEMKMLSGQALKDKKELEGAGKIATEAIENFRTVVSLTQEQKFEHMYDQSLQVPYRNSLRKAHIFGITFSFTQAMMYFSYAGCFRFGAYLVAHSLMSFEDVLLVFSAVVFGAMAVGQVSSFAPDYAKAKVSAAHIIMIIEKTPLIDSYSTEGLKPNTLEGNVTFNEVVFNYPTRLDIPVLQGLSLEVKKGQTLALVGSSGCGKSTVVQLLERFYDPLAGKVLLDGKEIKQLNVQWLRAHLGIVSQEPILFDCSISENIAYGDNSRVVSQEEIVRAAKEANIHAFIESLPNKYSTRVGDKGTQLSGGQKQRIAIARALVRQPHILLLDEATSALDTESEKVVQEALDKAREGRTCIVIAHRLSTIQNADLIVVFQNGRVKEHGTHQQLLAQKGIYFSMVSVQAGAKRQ

| Compound | efflux ratio at 120 min, 1 µM [1] | efflux ratio at 120 min, 1 µM [2] | efflux ratio at 120 min, 1 µM [3] | efflux ratio at 120 min, 1 µM [8] | CNS penetration classification based on total ER (hMDR1 + hBCRP) [9, 14] | efflux ratio at 120 min, 1 µM [5] | efflux ratio at 120 min, 1 µM [6] | further results |
| --- | --- | --- | --- | --- | --- | --- | --- | --- |
| CN(C)CCC=C1c2ccccc2CCc2ccccc21 [Amitriptylline] | – | – | – | – | – | – | – | Efflux Ratio in Abcb1KO-MDCKII rMDR1 ([1]; 1 µM, 120 min, mean ± SD): 0.94 ± 0.14; Efflux Ratio in Abcb1KO-MDCKII cyMDR1 ([2]; 1 µM, 120 min, mean ± SD): 0.67 ± 0.08; ER in MDCKII BCRP ([3]; 1 µM, 120 min, mean ± SD): 0.8 ± 0.07; Efflux Ratio in Abcb1KO-MDCKII Mock [4]: 1.05 ± 0.08; Efflux Ratio in Abcb1KO-MDCKII hMDR1 ([5]; 1 µM, 120 min, mean ± SD): 1.1 ± 0.11; Efflux Ratio in Abcb1KO-MDCKII mMDR1 ([6]; 1 µM, 120 min, mean ± SD): 0.96 ± 0.12 |
| Cc1ccc(-c2ncc(Cl)cc2-c2ccc(S(C)(=O)=O)cc2)cn1 [Etoricoxib] | 2.01 ± 0.21 | 1.24 ± 0.21 | 2.35 ± 0.25 | 0.9 ± 0.09 | false positives | 1.97 ± 0.21 | 1.72 ± 0.23 | IC50 [7]: 15.5 ± 11.7 µM; IC50 ([10]; Inhibition of digoxin transport IC50±SD, rMDR1, probe 3H-digoxin 1 µM, 120 min): 54.6 ± 3.16 µM; IC50 ([10]; Inhibition of quinidine transport IC50±SD, rMDR1, probe 3H-quinidine 1 µM, 30 min): 18.8 ± 1.22 µM; IC50 ([11]; Inhibition of digoxin transport IC50±SD, mMDR1, probe 3H-digoxin 1 µM, 120 min): 57.8 ± 29.8 µM; IC50 ([11]; Inhibition of quinidine transport IC50±SD, mMDR1, probe 3H-quinidine 1 µM, 60 min): 22.2 ± 5.43 µM; IC50 [12]: 25.9 ± 10.5 µM; IC50 ([13]; Inhibition of digoxin transport IC50±SD, hMDR1, probe 3H-digoxin 1 µM, 120 min): > 100 µM; IC50 ([13]; Inhibition of quinidine transport IC50±SD, hMDR1, probe 3H-quinidine 1 µM, 60 min): > 100 µM |
| COc1ccc2c(c1)c(CC(=O)O)c(C)n2C(=O)c1ccc(Cl)cc1 [Indomethacin] | 0.4 ± 0.01 | 0.4 ± 0.03 | 10.2 ± 0.71 | 0.37 ± 0.07 | true positives | 0.42 ± 0.05 | 0.39 ± 0.02 | CNS penetration classification based on hMDR1 ER alone ([5]; ER cut-off 2, in vivo rodent Kp,uu,brain cut-off 0.3): false negatives |
| OC[C@@H](O)[C@@H](O)[C@H](O)[C@H](O)CO [Mannitol] | 0.89 ± 0.12 | 0.76 ± 0.1 | 0.73 ± 0.2 | 0.96 ± 0.12 | false negatives | 0.87 ± 0.14 | 1.04 ± 0.16 | – |
| Cc1nccn1CC1CCc2c(c3ccccc3n2C)C1=O (stereo not shown) [Ondansetron] | 7.62 ± 0.39 | 3.77 ± 0.64 | 4.28 ± 0.71 | 0.7 ± 0.02 | false positives | 5.24 ± 0.68 | 5.33 ± 0.54 | – |
| CNS(=O)(=O)Cc1ccc2[nH]cc(CCN(C)C)c2c1 [Sumatriptan] | 2.02 ± 0.12 | 1.53 ± 0.1 | 1.74 ± 0.24 | 0.93 ± 0.04 | false negatives | 1.88 ± 0.12 | 1.76 ± 0.08 | – |
| COc1cc(Cc2cnc(N)nc2N)cc(OC)c1OC [Trimethoprim] | 13.2 ± 0.68 | 1.65 ± 0.1 | 3.08 ± 0.17 | 0.84 ± 0.06 | false positives | 7.29 ± 0.69 | 9.04 ± 0.49 | – |
| CC(=O)CC(c1ccccc1)c1c(O)c2ccccc2oc1=O (stereo not shown) [Warfarin] | 0.6 ± 0.01 | 0.58 ± 0.05 | 4.03 ± 0.29 | 0.54 ± 0.02 | – | 0.56 ± 0.02 | 0.58 ± 0.02 | CNS penetration classification based on total ER (hMDR1 + hBCRP) ([9]; not told): false positives |
